Measured values reported in ChEMBL document CHEMBL6087472, “Development and Discovery of a Selective Degrader of Casein Kinases 1 δ/ε” (J Med Chem, 2025).
Activity calls are given as the source filed them. The calls are words filed in the database; no cut-off is given here.

Key:
[1] = target: T1, von Hippel-Lindau disease tumor suppressor/Casein kinase I isoform delta (Homo sapiens, UniProt P48730+P40337); assay: PROTAC activity at VHL/HiBit fused CK1 delta in human MV4-11 cells assessed as fold change at 2.5 uM measured after 6 hrs in presence of MLN4924 by Nano-Glo HiBit assay; assay type: cell-based
T1 sequence (P40337 whole entry, looked up, the tested form may be a part, canonical isoform): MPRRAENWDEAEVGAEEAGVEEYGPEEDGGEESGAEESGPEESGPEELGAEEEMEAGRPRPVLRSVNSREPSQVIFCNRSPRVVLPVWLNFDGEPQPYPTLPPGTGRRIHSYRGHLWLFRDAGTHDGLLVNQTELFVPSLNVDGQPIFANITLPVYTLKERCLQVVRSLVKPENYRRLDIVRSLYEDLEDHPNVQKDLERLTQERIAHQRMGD
T1 sequence (P48730 whole entry, looked up, the tested form may be a part, canonical isoform): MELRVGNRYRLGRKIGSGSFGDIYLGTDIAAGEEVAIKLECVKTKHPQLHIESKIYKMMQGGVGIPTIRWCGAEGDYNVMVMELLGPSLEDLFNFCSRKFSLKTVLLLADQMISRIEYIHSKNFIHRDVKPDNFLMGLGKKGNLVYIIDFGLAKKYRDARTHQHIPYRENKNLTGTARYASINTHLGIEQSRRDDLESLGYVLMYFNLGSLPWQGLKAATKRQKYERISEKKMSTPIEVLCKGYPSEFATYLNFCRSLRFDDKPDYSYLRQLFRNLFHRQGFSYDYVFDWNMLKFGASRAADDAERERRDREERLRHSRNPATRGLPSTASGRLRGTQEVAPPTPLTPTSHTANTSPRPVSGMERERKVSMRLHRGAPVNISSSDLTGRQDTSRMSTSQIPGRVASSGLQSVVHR

[2] = target: T1, von Hippel-Lindau disease tumor suppressor/Casein kinase I isoform delta; assay: PROTAC activity at VHL/CK1 delta in human MV4-11 cells assessed as degradation of CK1-delta at 5 to 10 uM incubated for 6 hrs by Western blot analysis; assay type: cell-based; conditions: dose 5-10 µM
[3] = target: T2, von Hippel-Lindau disease tumor suppressor/Casein kinase I isoform alpha (Homo sapiens) (UniProt P48729+P40337); assay: PROTAC activity at VHL/CK1 alpha in HEK293 cells assessed as induction of degradation of CK1 alpha at 10 uM measured after 6 hrs by Western blot analysis relative to control; assay type: cell-based
T2 sequence (P40337 whole entry, looked up, canonical isoform): as the sequence (P40337 whole entry, looked up, the tested form may be a part, canonical isoform) above
T2 sequence (P48729 whole entry, looked up, canonical isoform): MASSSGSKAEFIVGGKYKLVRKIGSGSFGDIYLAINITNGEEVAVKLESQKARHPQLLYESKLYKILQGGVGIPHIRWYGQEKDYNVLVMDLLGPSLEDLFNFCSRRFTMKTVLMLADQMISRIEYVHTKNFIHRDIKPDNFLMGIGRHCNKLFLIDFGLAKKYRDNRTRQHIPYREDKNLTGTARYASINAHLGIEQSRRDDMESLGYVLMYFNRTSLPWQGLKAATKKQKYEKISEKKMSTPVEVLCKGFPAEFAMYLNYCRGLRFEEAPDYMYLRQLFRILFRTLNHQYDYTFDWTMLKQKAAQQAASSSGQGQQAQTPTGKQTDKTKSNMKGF

[4] = target: T3, von Hippel-Lindau disease tumor suppressor/Casein kinase I isoform epsilon (Homo sapiens) (UniProt P49674+P40337); assay: PROTAC activity at VHL/CK1 epsilon in HEK293 cells assessed as induction of degradation of CK1 epsilon measured after 6 hrs by Western blot analysis; assay type: cell-based; conditions: dose 0.01-30 µM
T3 sequence (P40337 whole entry, looked up, the tested form may be a part, canonical isoform): as the sequence (P40337 whole entry, looked up, the tested form may be a part, canonical isoform) above
T3 sequence (P49674 whole entry, looked up, the tested form may be a part, canonical isoform): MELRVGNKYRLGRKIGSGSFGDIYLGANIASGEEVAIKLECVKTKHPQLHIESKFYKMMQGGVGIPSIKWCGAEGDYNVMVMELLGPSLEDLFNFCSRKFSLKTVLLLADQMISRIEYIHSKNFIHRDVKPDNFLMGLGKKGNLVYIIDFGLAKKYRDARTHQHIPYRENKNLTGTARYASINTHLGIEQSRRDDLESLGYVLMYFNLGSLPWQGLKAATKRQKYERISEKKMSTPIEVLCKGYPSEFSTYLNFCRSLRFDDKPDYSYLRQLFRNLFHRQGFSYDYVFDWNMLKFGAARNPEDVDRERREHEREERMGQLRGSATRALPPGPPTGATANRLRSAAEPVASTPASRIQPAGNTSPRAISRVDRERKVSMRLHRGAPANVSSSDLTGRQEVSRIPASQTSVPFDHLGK

[5] = target: T1, von Hippel-Lindau disease tumor suppressor/Casein kinase I isoform delta; assay: PROTAC activity at VHL/HiBit fused CK1 delta in human MV4-11 cells assessed as fold change at 10 uM measured after 6 hrs in presence of 1 uM of MU1742 by Nano-Glo HiBit assay; assay type: cell-based
[6] = target: T1, von Hippel-Lindau disease tumor suppressor/Casein kinase I isoform delta; assay: PROTAC activity at VHL/HiBit fused CK1 delta in human MV4-11 cells assessed as fold change at 0.63 uM measured after 6 hrs in presence of 1 uM of MU1742 by Nano-Glo HiBit assay; assay type: cell-based
[7] = target: T1, von Hippel-Lindau disease tumor suppressor/Casein kinase I isoform delta; assay: PROTAC activity at VHL/HiBit fused CK1 delta in human MV4-11 cells assessed as fold change at 2.5 uM measured after 6 hrs in presence of 10 uM of MU1742 by Nano-Glo HiBit assay; assay type: cell-based
[8] = target: T1, von Hippel-Lindau disease tumor suppressor/Casein kinase I isoform delta; assay: PROTAC activity at VHL/CK1 delta in human MDA-MB-231 cells assessed as induction of degradation of CK1 delta by measuring maximum efficacy at 1 uM measured after 6 hrs relative to control; assay type: cell-based
[9] = target: T3, von Hippel-Lindau disease tumor suppressor/Casein kinase I isoform epsilon (Homo sapiens); assay: PROTAC activity at VHL/CK1 epsilon in human MDA-MB-231 cells assessed as induction of degradation of CK1 epsilon at 1 uM measured after 6 hrs; assay type: cell-based
[10] = target: T1, von Hippel-Lindau disease tumor suppressor/Casein kinase I isoform delta; assay: PROTAC activity at VHL/HiBit fused CK1 delta in human MV4-11 cells assessed as fold change at 10 uM measured after 6 hrs by Nano-Glo HiBit assay; assay type: cell-based
[11] = target: T2, von Hippel-Lindau disease tumor suppressor/Casein kinase I isoform alpha (Homo sapiens); assay: PROTAC activity at VHL/CK1 alpha in human U87 cells assessed as induction of degradation of CK1 alpha at 1 uM measured after 6 hrs; assay type: cell-based
[12] = target: T3, von Hippel-Lindau disease tumor suppressor/Casein kinase I isoform epsilon (Homo sapiens); assay: PROTAC activity at VHL/CK1 epsilon in HEK293 cells assessed as induction of degradation of CK1 epsilon by measuring maximum efficacy at 5 to 10 uM measured after 6 hrs by Western blot analysis relative to control; assay type: cell-based; conditions: dose 5-10 µM
[13] = target: T1, von Hippel-Lindau disease tumor suppressor/Casein kinase I isoform delta; assay: PROTAC activity at VHL/Hibit-fused CK1 delta in human MV4-11 cells assessed as half life at 2.5 uM measured upto 12 hrs in presence of cycloheximide by Nano-Glo HiBiT assay (reference value: 3 hrs); assay type: cell-based
[14] = target: T1, von Hippel-Lindau disease tumor suppressor/Casein kinase I isoform delta; assay: PROTAC activity at VHL/CK1 delta in human MDA-MB-231 cells assessed as induction of degradation of CK1 delta at 1 uM measured after 6 hrs; assay type: cell-based
[15] = target: T2, von Hippel-Lindau disease tumor suppressor/Casein kinase I isoform alpha (Homo sapiens); assay: PROTAC activity at VHL/CK1 alpha in human MDA-MB-231 cells assessed as induction of degradation of CK1 alpha at 1 uM measured after 6 hrs; assay type: cell-based
[16] = target: T3, von Hippel-Lindau disease tumor suppressor/Casein kinase I isoform epsilon (Homo sapiens); assay: PROTAC activity at VHL/Hibit-fused CK1 epsilon in human MV4-11 cells assessed as degradation of CK1 epsilon at 5 to 10 uM incubated for 6 hrs by Western blot analysis; assay type: cell-based; conditions: dose 5-10 µM
[17] = target: T3, von Hippel-Lindau disease tumor suppressor/Casein kinase I isoform epsilon (Homo sapiens); assay: PROTAC activity at VHL/CK1 epsilon in human MV4-11 cells assessed as degradation of CK1 epsilon at 5 to 10 uM incubated for 6 hrs by Western blot analysis; assay type: cell-based; conditions: dose 5-10 µM
[18] = target: T1, von Hippel-Lindau disease tumor suppressor/Casein kinase I isoform delta; assay: PROTAC activity at VHL/Hibit-fused CK1 delta in human MV4-11 cells assessed as degradation of CK1-delta incubated for 6 hrs by Nano-Glo HiBiT assay relative to control; assay type: cell-based
[19] = target: T3, von Hippel-Lindau disease tumor suppressor/Casein kinase I isoform epsilon (Homo sapiens); assay: PROTAC activity at VHL/CK1 epsilon in HEK293 cells assessed as induction of degradation of CK1 epsilon at 0.3 to 1.0 uM measured after 6 hrs by Western blot analysis relative to control; assay type: cell-based; conditions: dose 0.3-1 µM
HEK293 [20] = assay: Effect on VANGL2 phosphorylation in human HEK293 cells at 1 uM measured after 6 hrs by Western blot analysis; assay type: functional, cell-based
[21] = target: T1, von Hippel-Lindau disease tumor suppressor/Casein kinase I isoform delta; assay: PROTAC activity at VHL/HiBit fused CK1 delta in human MV4-11 cells assessed as fold change at 0.63 uM measured after 6 hrs by Nano-Glo HiBit assay; assay type: cell-based
[22] = target: T1, von Hippel-Lindau disease tumor suppressor/Casein kinase I isoform delta; assay: PROTAC activity at VHL/HiBit fused CK1 delta in human MV4-11 cells assessed as fold change at 10 uM measured after 6 hrs in presence of 10 uM of MU1742 by Nano-Glo HiBit assay; assay type: cell-based
[23] = target: T2, von Hippel-Lindau disease tumor suppressor/Casein kinase I isoform alpha (Homo sapiens); assay: PROTAC activity at VHL/Hibit-fused CK1 alpha in human MV4-11 cells assessed as degradation of CK1-alpha incubated for 6 hrs by Nano-Glo HiBiT assay relative to control; assay type: cell-based
[24] = target: T1, von Hippel-Lindau disease tumor suppressor/Casein kinase I isoform delta; assay: PROTAC activity at VHL/CK1 delta in human HEK293 cells at 0.625 to 10 uM in presence of MU1742 by Western blot analysis; assay type: cell-based; conditions: dose 0.625-10 µM
[25] = target: T1, von Hippel-Lindau disease tumor suppressor/Casein kinase I isoform delta; assay: PROTAC activity at VHL/CK1 delta in HEK293 cells assessed as induction of degradation of CK1 delta at 0.3 to 1.0 uM measured after 6 hrs by Western blot analysis relative to control; assay type: cell-based; conditions: dose 0.3-1 µM
[26] = target: T1, von Hippel-Lindau disease tumor suppressor/Casein kinase I isoform delta; assay: PROTAC activity at VHL/HiBit fused CK1 delta in human MV4-11 cells assessed as fold change at 10 uM measured after 6 hrs in presence of MLN4924 by Nano-Glo HiBit assay; assay type: cell-based
[27] = target: T1, von Hippel-Lindau disease tumor suppressor/Casein kinase I isoform delta; assay: PROTAC activity at VHL/HiBit fused CK1 delta in human MV4-11 cells assessed as fold change at 2.5 uM measured after 6 hrs by Nano-Glo HiBit assay; assay type: cell-based
[28] = target: T2, von Hippel-Lindau disease tumor suppressor/Casein kinase I isoform alpha (Homo sapiens); assay: PROTAC activity at VHL/CK1 alpha in human MV4-11 cells assessed as induction of degradation of CK1 alpha by measuring maximum efficacy at 10 uM measured after 12 hrs by HiBit assay relative to control; assay type: cell-based
[29] = target: T1, von Hippel-Lindau disease tumor suppressor/Casein kinase I isoform delta; assay: PROTAC activity at VHL/CK1 delta in HEK293 cells assessed as induction of degradation of CK1 delta at 3 uM measured after 6 hrs by Western blot analysis relative to control; assay type: cell-based
HEK293 [30] = assay: Effect on DVL3 phosphorylation in human HEK293 cells at 1 uM measured after 6 hrs by Western blot analysis; assay type: functional, cell-based

## Cc1ncsc1-c1ccc(CNC(=O)[C@H]2C[C@H](O)CN2C(=O)[C@H](NC(=O)CCCCCCC(=O)N2CCC(F)(Cn3cnc(-c4ccc(F)cn4)c3-c3ccnc4[nH]ccc34)CC2)C(C)(C)C)cc1
[1]
  fold change (FC): 0.85
[2]
  Activity: Active
[3]
  Activity: Not active; Compound Showed Weak Degradation
[4]
  Activity: Dose-dependent-effect
[5]
  fold change (FC): 0.67
[6]
  fold change (FC): 1.19
[7]
  fold change (FC): 1.19
[8]
  Emax: 75%
[9]
  Activity: Active
[10]
  fold change (FC): 0.3
[11]
  Activity: inactive
[12]
  Emax: > 50%
[13]
  T1/2: 40 min
[14]
  Activity: Active
[15]
  Activity: inactive
[16]
  Activity: Active
[17]
  Activity: Active
[18]
  Emax: 70.1%
[19]
  Activity: 100%
HEK293 [20]
  Activity: Active
[21]
  fold change (FC): 0.49
[22]
  fold change (FC): 1.02
[23]
  Emax: 35.1%
[24]
  Activity: inactive
[25]
  Activity: 100%
[26]
  fold change (FC): 0.93
[27]
  fold change (FC): 0.33
[28]
  Emax: 50%
[29]
  Activity: 100%
HEK293 [30]
  Activity: Active
